Patent US11702429B2, “mTORC modulators and uses thereof” (Aeovian Pharmaceuticals, Inc., priority 2019, dated 2023)
Read-outs that look alike come from different tables or passages of the source.

Columns and labels:
mTORC1 = biological target: T1, mTORC1 (Homo sapiens, UniProt P42345+P62942); assay: Inhibition assay for mTORC1: phosphorylation of pS6K at Thr389, AlphaLISA in PC3 cells; format: cell-based; conditions: read-out: pIC50 mTORC1 (converted)
T1 construct: endogenous in cells; host or cells: PC3 cells (human prostate adenocarcinoma)

mTORC2 = biological target: T2, mTORC2 (Homo sapiens, UniProt P42345+P62942); assay: Inhibition assay for mTORC2: phosphorylation of pAkt at Ser473, AlphaLISA in PC3 cells; format: cell-based; conditions: read-out: pIC50 mTORC2 (converted)
T2 construct: endogenous in cells; host or cells: PC3 cells (human prostate adenocarcinoma)
T2 sequence (P62942 2-108 limits assumed, other chains not shown): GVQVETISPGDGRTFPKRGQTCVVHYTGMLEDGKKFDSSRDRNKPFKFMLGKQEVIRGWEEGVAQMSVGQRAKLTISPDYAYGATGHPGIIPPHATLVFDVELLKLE

SMILES | IC50 (mTORC1) [nM] | IC50 (mTORC2) [nM] | IC50 (mTORC1; PC3 cells, treated 24 hours, pS6K Thr389, AlphaLISA, C16 diastereomer mixtures not separated) [nM] | IC50 (mTORC2; PC3 cells, treated 24 hours, pAkt Ser473, AlphaLISA, C16 diastereomer mixtures not separated) [nM]
CO[C@H](COC1C[C@@H]2CC[C@@H](C)[C@@](O)(O2)C(=O)C(=O)N2CCCCC2C(=O)O[C@H]([C@H](C)C[C@@H]2CC[C@@H](O)[C@H](OC)C2)CC(=O)[C@H](C)/C=C(\C)[C@@H](O)[C@@H](OC)C(=O)[C@H](C)C[C@H](C)/C=C/C=C/C=C/1C)c1ccccc1 (some centres unmarked) [Compound 206] | 0.316 to 3.16 | 1000 to 10000 |  | 
CO[C@@H]1C[C@H](C[C@@H](C)[C@@H]2CC(=O)[C@H](C)/C=C(\C)[C@@H](O)[C@@H](OC)C(=O)[C@H](C)C[C@H](C)/C=C/C=C/C=C(\C)C(OCCCO)C[C@@H]3CC[C@@H](C)[C@@](O)(O3)C(=O)C(=O)N3CCCC[C@H]3C(=O)O2)CC[C@H]1OCCCc1ccccc1 (mixture of isomers) [Compound 67, (1R,9S,12SR,15R,16E,18R,19R,21R,23S,24E,26E,28E,32SR,35R)-1,18-dihydroxy-30-(3-hydroxypropoxy)-19-methoxy-12-[(1R)-2-[(1S,3R,4R)-3-methoxy-4-(3-phenylpropoxy)cyclohexyl]-1-methyl-ethyl]-15,17,21,23,29,35-hexamethyl-11,36-dioxa-4-azatricyclo[30.3.1.0^4,9]hexatriaconta-16,24,26,28-tetraene-2,3,10,14,20-pentone] |  |  | 0.316 to 3.16 | > 10000
COC1C[C@@H]2CC[C@@H](C)[C@@](O)(O2)C(=O)C(=O)N2CCCCC2C(=O)O[C@H]([C@H](C)C[C@@H]2CC[C@@H](OC(=O)NCCN3CCN(C)CC3)[C@H](OC)C2)CC(=O)[C@H](C)/C=C(\C)[C@@H](O)[C@@H](OC)C(=O)[C@H](C)C[C@H](C)/C=C/C=C/C=C/1C (some centres unmarked) [Compound 367] | < 0.316 | < 1000 |  | 
COC1CC2CCC(C)C(O)(O2)C(=O)C(=O)N2CCCCC2C(=O)OC(C(C)CC2CCC(OCCc3ccccc3)C(OC)C2)CC(=O)C(C)C=C(C)C(O)C(OC)C(=O)C(C)CC(C)C=CC=CC=C1C (centres unmarked) [Compound 348] | < 0.316 | < 1000 |  | 
CO[C@@H]1C[C@H](C[C@@H](C)[C@@H]2CC(=O)[C@H](C)/C=C(\C)[C@@H](O)[C@@H](OC)C(=O)[C@H](C)C[C@H](C)/C=C/C=C/C=C(\C)C(OC3CC3)C[C@@H]3CC[C@@H](C)[C@@](O)(O3)C(=O)C(=O)N3CCCCC3C(=O)O2)CC[C@H]1O (some centres unmarked) [Compound 209] | < 0.316 | < 1000 |  | 
COCCOC1C[C@@H]2CC[C@@H](C)[C@@](O)(O2)C(=O)C(=O)N2CCCCC2C(=O)O[C@H]([C@H](C)C[C@@H]2CC[C@@H](O)[C@H](OC)C2)CC(=O)[C@H](C)/C=C(\C)[C@@H](O)[C@@H](OC)C(=O)[C@H](C)C[C@H](C)/C=C/C=C/C=C/1C (some centres unmarked) [Compound 220] | < 0.316 | 1000 to 10000 |  | 
COC1C[C@@H]2CC[C@@H](C)[C@@](O)(O2)C(=O)C(=O)N2CCCCC2C(=O)O[C@H]([C@H](C)C[C@@H]2CC[C@@H](OC(=O)NC3C(O)O[C@H](CO)[C@@H](O)[C@@H]3O)[C@H](OC)C2)CC(=O)[C@H](C)/C=C(\C)[C@@H](O)[C@@H](OC)C(=O)[C@H](C)C[C@H](C)/C=C/C=C/C=C/1C (some centres unmarked) [Compound 361] | > 3.16 | < 1000 |  | 
COC1C[C@@H]2CC[C@@H](C)[C@@](O)(O2)C(=O)C(=O)N2CCCCC2C(=O)O[C@H]([C@H](C)C[C@@H]2CC[C@@H](OC(=O)NCCCN3CCCCC3)[C@H](OC)C2)CC(=O)[C@H](C)/C=C(\C)[C@@H](O)[C@@H](OC)C(=O)[C@H](C)C[C@H](C)/C=C/C=C/C=C/1C (some centres unmarked) [Compound 366] | > 3.16 | 1000 to 10000 |  | 
COC1C[C@@H]2CC[C@@H](C)[C@@](O)(O2)C(=O)C(=O)N2CCCCC2C(=O)O[C@H]([C@H](C)C[C@@H]2CC[C@@H](OC(=O)NCCn3cnnn3)[C@H](OC)C2)CC(=O)[C@H](C)/C=C(\C)[C@@H](O)[C@@H](OC)C(=O)[C@H](C)C[C@H](C)/C=C/C=C/C=C/1C (some centres unmarked) [Compound 312] | < 0.316 | < 1000 |  | 
CO[C@@H]1C[C@H](C[C@@H](C)[C@@H]2CC(=O)[C@H](C)/C=C(\C)[C@@H](O)[C@@H](OC)C(=O)[C@H](C)C[C@H](C)/C=C/C=C/C=C(\C)C(OC[C@@H](O)c3ccccc3)C[C@@H]3CC[C@@H](C)[C@@](O)(O3)C(=O)C(=O)N3CCCCC3C(=O)O2)CC[C@H]1O (some centres unmarked) [Compound 217] | < 0.316 | 1000 to 10000 |  | 
